Consider one substance from patent publication US5599789A, “Method for the treatment of tumours and sarcomas” (Amrad Corporation Limited, priority 1991, dated 1997).

For assay [1], the system named is Ewing's Sarcoma cell line Al (uncloned). The assay is described as follows: Colony formation in semi-solid agar cultures, Al (uncloned) cells. It counts as cell-based, human. Particulars: Al(uncloned), 5,000 cells, day 18. The procedure: (§1) Tumour cells obtained from biopsy and bone marrow specimens from patients with Ewing's Sarcoma were used in these studies. Approval for this project has been obtained from the Ethics Committee of the Royal Children's Hospital.
(§2) Single cell suspensions of tumour cells were obtained by mechanical disruption with an 18G or 21G needle or by pipetting, followed by incubation with dispase II (Boehringer) at a concentration of 1.2 units per ml for 10 minutes at 37° C. Prior to the addition to agar-medium the cells were vortexed gently to prevent clumping.
(§3) Clonal cell lines were grown in Iscove's Modified Dulbecco's Medium (IMDM) supplemented with 10% v/v foetal calf serum (FCS; CSL Limited, Melbourne, Australia) and were passaged either weekly or twice weekly. The characteristics of the Ewing Sarcoma cell lines used herein as described below:
(§4) The tumour cells were immobilised in 0.3% w/v agar containing Iscove's Modified Dulbecco's Medium (IMDM) and 10% v/v FCS. […] Cultures were scored for the presence of colonies (>40 cells) or clusters (<40 cells). The number of cells plated per culture ranged from 500 to 10,000 per ml. Colonies were counted on an Olympus dissecting microscope.
(§5) IL-1, IL-3, IL-4, IL-6, M-CSF, G-CSF, GM-CSF, Stem Cell Factor (SCF), TNFα, TGFα, TGFβ, EGF, aFGF, bFGF, NGF, IGF I, IGF II, PDGF and IFN-γ.
(§6) The recombinant human leukaemia inhibitory factor (LIF) was obtained from AMRAD Corporation Limited, Melbourne, Australia.

Assay [2] has as its system Ewing's Sarcoma cell line Al-1. The assay can be described thus: Colony formation in semi-solid agar cultures, Al-1 cells. The assay is classed as cell-based, human. Particulars: day 18. The procedure:
as §1, §2, §3
(§7) Cell lines derived from the above primary cell lines (Al and Cu) are identified by an Arabic numeral (e.g. Al-1, Al-5, Al-8 or Cu-1).
as §4, §5, §6

In assay [3] the test system is Ewing's Sarcoma cell line Cu-1. The assay can be described thus: Colony formation in semi-solid agar cultures, Cu-1 cells. The assay is classed as cell-based, human. Particulars: Cu-1, 10,000 cells, day 18. The procedure:
as §1, §2, §3, §7, §4, §5, §6

The next assay relates to Ewing's Sarcoma cells. The assay can be described thus: Colony formation in agar cultures, a number of different Ewing's cell lines (summary statements). The assay is classed as cell-based, human.
Excerpt: as §4

Assay [4] concerns LIF receptors on different Ewing sarcoma cells. The assay is described as follows: 125I-hLIF binding, second independent Scatchard analysis. Set-up: species or system human. Conditions: read-out: Equilibrium dissociation constant. The protocol:
A cloned Ewing sarcoma cell line Al5 (7×10^6 per point) in 100 μl of RPMI-medium containing 10 mM Hepes buffer pH 7.4 and 10% v/v foetal calf serum were incubated with increasing concentrations of ^125 I-hLIF (E. coli derived) (5000-800,000 cpm: 100,000 cpm/ng) with or without 5 μg/ml of unlabelled hLIF for 3 hrs on ice. The incubation mixture was then layered over 180 μl cold foetal calf serum, centrifuged at top speed in an Eppendoff microfuge for 10 sec and the tip of the tube containing the cell pellet cut with a scalpel blade and removed for counting in a gamma counter.

Setting [5] is: stimulus 100 ng, mean of duplicate colony counts.

Take “LIF: recombinant human leukaemia inhibitory factor (E. coli derived) from AMRAD Corporation Limited”: the Colonies/Cultures in assay [1] (stimulus 0.01 ng) was found to be 222; in assay [1] (stimulus 0.1 ng) it was 205; in assay [1] (stimulus 1 ng), 160; in assay [1] (stimulus 10 ng), 10; in assay [1] (setting [5]) it was 8; in assay [2] (Al-1, 1,000 cells, stimulus 0.01 ng) it was 50. Besides, the Colonies/Cultures in assay [2] (Al-1, 1,000 cells, stimulus 0.1 ng) was 39; in assay [2] (Al-1, 1,000 cells, stimulus 1 ng) it was 23; in assay [2] (Al-1, 1,000 cells, stimulus 10 ng), 24; in assay [2] (Al-1, 1,000 cells, stimulus 100 ng, mean of duplicate colony counts), 32; in assay [2] (Al-1, 10,000 cells, stimulus 0.01 ng), 695; in assay [2] (Al-1, 10,000 cells, stimulus 0.1 ng), 305. The Colonies/Cultures in assay [2] (Al-1, 10,000 cells, stimulus 1 ng) was found to be 129; in assay [2] (Al-1, 10,000 cells, stimulus 10 ng) it was 17; in assay [2] (Al-1, 10,000 cells, stimulus 100 ng, mean of duplicate colony counts), 18; in assay [3] (stimulus 0.01 ng), 542; in assay [3] (stimulus 0.1 ng) it was 430; in assay [3] (stimulus 1 ng), 192. For the same substance, the Colonies/Cultures in assay [3] (stimulus 10 ng) is 97; in assay [3] (setting [5]), 125. Further, the “Effect on colony counts” value with Ewing's Sarcoma cells (between 0.1 and 100 ng LIF per culture, agar cultures, different Ewing's cell lines) is “able to significantly reduce colony counts”. The “Magnitude of colony reduction relative to other growth factors tested” value in the assay with Ewing's Sarcoma cells (culture of Ewing's Sarcoma cells) is “greater than those induced by other growth factors tested”. For the same substance, in the assay on Ewing's Sarcoma cells (culture of Ewing's Sarcoma cells, dose-dependent), the “Number of colonies compared to untreated controls” value is “significantly reduces the number of colonies”. In assay [4], the Kd is 0.13 nM.
